Assay results from the supplement of paper PMC11061612.

Tests used:
Experiment in all cases: Bliss excess, mean over the matrix (fraction); higher = more synergy
[1] = system: HCC1395 (Breast Carcinoma)
Procedure, shortened: (§1)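 After 24 hours at 37°C and 5% CO2 in 1536-well plates, cells in DMEM/F12 or RPMI plus 10% FBS received two-drug dose matrices for 72 hours. Viability came from CellTiter-Glo 2.0 luminescence and was scaled as inhibition, anchored at 0 by vehicle wells and at 1 by blank wells. Combination Emax is taken as the second-highest inhibition in the matrix, and Bliss excess as the observed combination effect less EA + EB − EA·EB, with EA and EB the single-agent effects.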

[2] = system: LU-165 (Small Cell Lung Carcinoma)
Procedure, shortened: as §1

[3] = system: 22RV1 (Prostate Carcinoma)
Procedure, shortened: as §1

[4] = system: HCC70 (Breast Carcinoma)
Procedure, shortened: as §1

[5] = system: CGTH-W-1 (Thyroid Gland Carcinoma)
Procedure, shortened: as §1

[6] = system: WM1552C (Melanoma)
Procedure, shortened: as §1

[7] = system: EW-7 (Ewing's Sarcoma)
Procedure, shortened: as §1

[8] = system: NCI-H2087 (Lung Adenocarcinoma)
Procedure, shortened: as §1

[9] = system: MDA-MB-436 (Breast Carcinoma)
Procedure, shortened: as §1

Compound	Bliss excess [1]	Bliss excess [2]	Bliss excess [3]	Bliss excess [4]	Bliss excess [5]	Bliss excess [6]	Bliss excess [7]	Bliss excess [8]	Bliss excess [9]
C=CCn1c(=O)c2cnc(Nc3ccc(N4CCN(C)CC4)cc3)nc2n1-c1cccc(C(C)(C)O)n1 [AZD1775] + CCc1c2c(nc3ccc(O)cc13)-c1cc3c(c(=O)n1C2)COC(=O)[C@]3(O)CC [SN-38] (first compound max 1 µM, partner max 0.3 µM)	-0.0322	-0.0771	-0.0464	-0.0528	-0.0747	-0.0628	-0.0501	0.0067	-0.0545
C=CCn1c(=O)c2cnc(Nc3ccc(N4CCN(C)CC4)cc3)nc2n1-c1cccc(C(C)(C)O)n1 [AZD1775] + Nc1ccn([C@@H]2O[C@H](CO)[C@@H](O)C2(F)F)c(=O)n1 [Gemcitabine] (first compound max 1 µM, partner max 0.3 µM)	0.0294	0.0004	-0.0225	-0.0232	0.0167	-0.0467	0.0396	0.0247	0.0536
CN(CCO)CC[C@H](CSc1ccccc1)Nc1ccc(S(=O)(=O)NC(=O)c2ccc(N3CCC([C@@H](O)c4ccccc4-c4ccc(Cl)cc4)CC3)cc2)cc1S(=O)(=O)C(F)(F)F [AZD4320] + CS(=O)(=O)CCNCc1ccc(-c2ccc3ncnc(Nc4ccc(OCc5cccc(F)c5)c(Cl)c4)c3c2)o1 [Lapatinib] (first compound max 1 µM, 7x7, partner max 10 µM)	-0.0261	–	-0.0394	0.0536	-0.0184	0.0285	0.138	-0.0033	-0.0333
Cc1c2c(nn1C)CSCc1cc(n(C)n1)CSc1cc(c3ccccc3c1)OCCCc1c(C(=O)O)n(C)c3c-2c(Cl)ccc13 [AZD5991] + CC(=O)O[C@H]1C(=O)[C@@]2(C)[C@H]([C@H](OC(=O)c3ccccc3)[C@]3(O)C[C@H](OC(=O)[C@H](O)[C@@H](NC(=O)c4ccccc4)c4ccccc4)C(C)=C1C3(C)C)[C@]1(OC(C)=O)CO[C@@H]1C[C@@H]2O [Paclitaxel] (first compound max 1 µM, 7x7, partner max 3 µM)	0.0501	-0.0443	0.0731	0.0649	0.037	0.0097	0.0625	0.0128	0.0273
Cc1c2c(nn1C)CSCc1cc(n(C)n1)CSc1cc(c3ccccc3c1)OCCCc1c(C(=O)O)n(C)c3c-2c(Cl)ccc13 [AZD5991] + CS(=O)(=O)CCNCc1ccc(-c2ccc3ncnc(Nc4ccc(OCc5cccc(F)c5)c(Cl)c4)c3c2)o1 [Lapatinib] (first compound max 1 µM, 7x7, partner max 10 µM)	-0.0227	-0.125	-0.0131	0.0603	0.0013	0.0199	0.033	0.0165	-0.0434
Cc1c2c(nn1C)CSCc1cc(n(C)n1)CSc1cc(c3ccccc3c1)OCCCc1c(C(=O)O)n(C)c3c-2c(Cl)ccc13 [AZD5991] + Nc1ccn([C@@H]2O[C@H](CO)[C@@H](O)C2(F)F)c(=O)n1 [Gemcitabine] (first compound max 1 µM, 7x7, partner max 0.3 µM)	-0.0262	-0.0278	-0.02	0.0365	-0.0235	-0.0232	-0.0158	-0.0307	-0.06
C[C@@H]1COCCN1c1cc(C2([S@](C)(=N)=O)CC2)nc(-c2ccnc3[nH]ccc23)n1 [AZD6738] + C1CC(C1)(C(=O)[O-])C(=O)[O-].N.N.[Pt+2] [Carboplatin] (first compound max 10 µM, 7x7, partner max 10 µM)	-0.0573	-0.0517	-0.0138	-0.0305	-0.0098	-0.0299	-0.0315	-0.0344	-0.0038
C[C@@H]1COCCN1c1cc(C2([S@](C)(=N)=O)CC2)nc(-c2ccnc3[nH]ccc23)n1 [AZD6738] + Nc1ccn([C@@H]2O[C@H](CO)[C@@H](O)C2(F)F)c(=O)n1 [Gemcitabine] (first compound max 10 µM, 7x7, partner max 0.3 µM)	0.0334	-0.018	-0.0011	0.0904	0.106	0.0225	0.0313	0.0743	0.0544
C[C@@H](Nc1cc(F)cc(F)c1)c1cc(C(=O)N(C)C)cc2c(=O)cc(N3CCOCC3)oc12 [AZD8186] + C1CN(CCC1(C(=O)N[C@@H](CCO)C2=CC=C(C=C2)Cl)N)C3=NC=NC4=C3C=CN4 [AZD5363] (first compound max 10 µM, 7x7, partner max 10 µM)	0.0007	-0.086	-0.0401	-0.0152	-0.0136	-0.0322	-0.03	-0.0043	-0.0162
C[C@@H](Nc1cc(F)cc(F)c1)c1cc(C(=O)N(C)C)cc2c(=O)cc(N3CCOCC3)oc12 [AZD8186] + CC(=O)c1c(C)c2cnc(Nc3ccc(N4CCNCC4)cn3)nc2n(C2CCCC2)c1=O [Palbociclib] (first compound max 10 µM, 7x7, partner max 10 µM)	0.063	-0.0313	-0.0421	0.0225	0.0397	-0.0163	0.045	-0.0232	-0.0039
C[C@@H](Oc1cc(-c2cnn(C3CCNCC3)c2)cnc1N)c1c(Cl)ccc(F)c1Cl [Crizotinib] + CC1=C(C(=CC=C1)Cl)NC(=O)C2=CN=C(S2)NC3=CC(=NC(=N3)C)N4CCN(CC4)CCO [Dasatinib] (first compound max 10 µM, 7x7, partner max 2 µM)	0.0615	-0.0337	-0.0187	-0.0407	0.0795	0.0392	-0.0072	-0.0254	-0.0418
C[C@@H](Oc1cc(-c2cnn(C3CCNCC3)c2)cnc1N)c1c(Cl)ccc(F)c1Cl [Crizotinib] + Cn1cnc2c(F)c(Nc3ccc(Br)cc3Cl)c(C(=O)NOCCO)cc21 [Selumetinib] (first compound max 10 µM, 7x7, partner max 10 µM)	-0.0786	-0.082	0.0331	0.0191	-0.0275	-0.0338	-0.0101	-0.0078	-0.005
CS(=O)(=O)CCNCc1ccc(-c2ccc3ncnc(Nc4ccc(OCc5cccc(F)c5)c(Cl)c4)c3c2)o1 [Lapatinib] + Cn1cnc2c(F)c(Nc3ccc(Br)cc3Cl)c(C(=O)NOCCO)cc21 [Selumetinib] (first compound max 10 µM, 7x7, partner max 10 µM)	-0.0343	-0.0543	-0.045	0.0408	-0.0291	-0.0077	0.0166	-0.0455	-0.0587
O=C(c1cc(Cc2n[nH]c(=O)c3ccccc23)ccc1F)N1CCN(C(=O)C2CC2)CC1 [Olaparib] + CC1(C)CCC(CN2CCN(c3ccc(C(=O)NS(=O)(=O)c4ccc(NCC5CCOCC5)c([N+](=O)[O-])c4)c(Oc4cnc5[nH]ccc5c4)c3)CC2)=C(c2ccc(Cl)cc2)C1 [Venetoclax] (first compound max 10 µM, 7x7, partner max 1 µM)	-0.0396	-0.0248	-0.0622	-0.0472	-0.0433	-0.0325	0.0125	-0.0543	-0.0518
O=C(c1cc(Cc2n[nH]c(=O)c3ccccc23)ccc1F)N1CCN(C(=O)C2CC2)CC1 [Olaparib] + CN(CC[C@H](CSC1=CC=CC=C1)NC2=C(C=C(C=C2)S(=O)(=O)NC(=O)C3=CC=C(C=C3)N4CCC(CC4)[C@H](C5=CC=CC=C5C6=CC=C(C=C6)Cl)O)S(=O)(=O)C(F)(F)F)CCO [AZD4320] (first compound max 10 µM, 7x7, partner max 1 µM)	-0.0335	-0.008	-0.0864	0.0129	-0.0482	0.0005	0.129	-0.0215	-0.0288
O=C(c1cc(Cc2n[nH]c(=O)c3ccccc23)ccc1F)N1CCN(C(=O)C2CC2)CC1 [Olaparib] + COc1nnc2ccc(N3CCC(c4ccc(OCCN5CCN(C)C(=O)[C@H]5C)cc4)CC3)nn12 [AZD5153] (first compound max 10 µM, 7x7, partner max 1 µM)	-0.0658	-0.0305	-0.0312	-0.0402	-0.0247	-0.0553	0.0362	-0.0304	-0.0247
